# Measurements from patent publication US5096929A, “2-amino-1,2,3,4-tetrahydronaphthalene derivatives with cardiovascular activity, process for their preparation and pharmaceutical compositions containing them” (Chiesi Farmaceutici S.p.A., priority 1989, dated 1992).
# Where a name gives a salt, the structure may show the parent alone. Read-outs that look alike come from different tables or passages of the source.
# Assays:
# [1] = tested on: isolated rat left atrium; assay: Isolated rat left atrium: inotropic activity (force); settings: for EC50 / Emax: Rattus norvegicus; for EC50: read-out: EC50, left atrium (force)
# Experimental: (§1) The inotropic and chronotropic effects of compound (Ia) of the invention were determined in vitro using, respectively, isolated rat left atrium and right atrium.
# Left atrium:inotrocic activity
# The atria were subjected to a 0.5 g starting tension and suspended in a bath containing aerated Krebs-Henseleit j solution with 95% O2 and […] kept at 32.C. The preparation was stimulated at a 4 Hz frequency with pulses during 5 msec each. The contraction strength was detected by an isometric transducer and recorded on a microndynamometer.
# (§2) The results were expressed as the percentage of the response obtained with a maximal dose ([…]) of isoproterenol which was determined at the beginning of the test. In Table 1 the potency (EC50=effective concentration inducing the 50% of the maximal effect) and the relative intrinsic activity (expressed as α and compared with that of isoproterenol, taken=1) are shown.
# (§3) The effects of the compounds were evaluated in rat isolated atria according to the previously described method.
# (§4) Table 3. Potency (EC50) and intrinsic activity (α;isoproterenol=1) on the isolated rat left atrium (Inotropic activity) and right atrium (chronotropic activity).
# [2] = tested on: isolated rat right atrium; assay: Isolated rat right atrium: chronotropic activity (frequency); settings: for EC50 / Emax: Rattus norvegicus; for EC50: read-out: EC50, right atrium (frequency)
# Experimental: as §1
# Right atrium:chronotrpic activity
# The preparation was prepared in the same way and under the same conditions as described above, but was not subjected to electric stimulation. Frequency was monitored by a cardiotachograph.
# as §2, §3, §4
# [3] = tested on: beta-1 adrenergic receptors; assay: Isolated rat left atrium: interactions with beta-adrenergic receptors (atenolol antagonism)
# Experimental: Isolated rat left atrium: interactions with beta-adrenercic receptors.
# The affinity for beta-1 adrenergic receptors has been evaluated in the rat left atrium as previously described.
# In this test, dose-response curves of CHF 1255 were recorded in the absence and in the presence of increasing concentrations (10^-8 to 3×10^-7 M) of the selective beta-1 blocker atenolol.
# [4] = target: T1, beta-2 adrenergic receptors (Cavia porcellus, UniProt Q8K4Z4); assay: Isolated guinea-pig trachea: interactions with beta-2 adrenergic receptors (relaxation of carbachol contraction); settings: for EC50: carbachol 3×10^-7 M
# T1 construct: Trachea strips were isolated and prepared according to the method described by Emerson J and Machay D; from tissue; host or cells: guinea-pig isolated trachea strips
# Experimental: The selectivity of this interaction has been studied by evaluating the effects on beta-2 adrenergic receptors, in the guinea-pig isolated trachea, using CHF 1026 as reference compound.
# Isolated guinea-pig trachea: interactions with beta-2 adrenergic receptors
# Trachea strips were isolated and prepared according to the method described by Emerson J and Machay D in J Pharm Pharmacol 1979, 31, 798, immersed in Krebs-Henseleit solution (37° C., 95% O2 +5% CO2), subjected to an initial tension of 1 g and contracted with carbachol (3×10^-7 M).
# Dose-response curves of CHF 1255 and CHF 1026 were recorded in the absence and in the presence of 10^-6 M propranolol, used as antagonist and added to the bath before the stimulation with carbachol.
# The obtained results are shown in Table 2, expressed as potency (EC50 calculated from t he dose--response curve) and intrinsic activity (α, isoproternol=1).
# [5] = tested on: rabbit isolated aorta; assay: Rabbit isolated aorta, inhibition of norepinephrine dose-response curve
# [6] = tested on: anesthetized dog; assay: Anesthetized dog: cardiovascular activity; assay type: in vivo, Beagle dog; settings: for Hypotensive action / Increase of the cardiac output / Increase of the stroke volume / Reduction of the systemic arterial resistances: i.v. bolus
# Experimental: The interesting hemodynamic properties of CHF 1255 were confirmed in vivo in the anesthetized dog.
# Anesthesized dog: cardiovascular activity
# Beagle dogs were anesthetized with sodium pentobarbital (30 mg/kg iv) thoracotomized and monitored by recording cardiocirculatory parameters.
# CHF 1255 and the reference drugs (amrinone and xamoterol) were administered i.v. in a bolus.
# CHF 1255 at the doses of 0.3-1.3 μmoles/kg i.v. confirmed its activity in changing hemodynamic parameters.
# [7] = Evaluation of acute toxicities, mouse; settings: in vivo, male, read-out: Acute toxicity mean LD50
# Text: (§5) Evaluation of acute toxicities
# [8] = Evaluation of acute toxicities, rat; settings: in vivo, male/female, read-out: Acute toxicity mean LD50
# Text: as §5
# [9] = tested on: catecholamines release; assay: Mechanism of cardiostimulant action: catecholamines release; settings: mechanism study
# Text: (§6) The mechanism of the inotropic activity of CHF 1255 has been studied in a series of other tests.
# (§7) Studies have excluded the possibility that the cardiostimulant action of the compound is due to catecholamines release, to the stimulation of alpha-adrenergic cardiac receptors, or to the stimulation of histaminergic H1 and H2 receptors.
# [10] = tested on: alpha-adrenergic cardiac receptors; assay: Mechanism of cardiostimulant action: alpha-adrenergic cardiac receptors; settings: mechanism study
# Text: as §6, §7
# [11] = tested on: histaminergic H1 receptors; assay: Mechanism of cardiostimulant action: histaminergic H1 receptors; settings: mechanism study
# Text: as §6, §7
# [12] = tested on: histaminergic H2 receptors; assay: Mechanism of cardiostimulant action: histaminergic H2 receptors; settings: mechanism study
# Text: as §6, §7
# [13] = tested on: phosphodiesterase; assay: Mechanism of cardiostimulant action: phosphodiesterase inhibition; settings: mechanism study
# Text: as §6, §7
# [14] = tested on: beta-2 adrenergic receptors; assay: Isolated guinea-pig trachea: interactions with beta-2 adrenergic receptors (relaxation of carbachol contraction); settings: inferred from selective beta-1 agonism
# [15] = 1st of three doses (0.3-1.3 μmoles/kg)
# [16] = 2nd of three doses (0.3-1.3 μmoles/kg)
# [17] = 3rd of three doses (0.3-1.3 μmoles/kg)
# T1 sequence (Q8K4Z4 whole entry): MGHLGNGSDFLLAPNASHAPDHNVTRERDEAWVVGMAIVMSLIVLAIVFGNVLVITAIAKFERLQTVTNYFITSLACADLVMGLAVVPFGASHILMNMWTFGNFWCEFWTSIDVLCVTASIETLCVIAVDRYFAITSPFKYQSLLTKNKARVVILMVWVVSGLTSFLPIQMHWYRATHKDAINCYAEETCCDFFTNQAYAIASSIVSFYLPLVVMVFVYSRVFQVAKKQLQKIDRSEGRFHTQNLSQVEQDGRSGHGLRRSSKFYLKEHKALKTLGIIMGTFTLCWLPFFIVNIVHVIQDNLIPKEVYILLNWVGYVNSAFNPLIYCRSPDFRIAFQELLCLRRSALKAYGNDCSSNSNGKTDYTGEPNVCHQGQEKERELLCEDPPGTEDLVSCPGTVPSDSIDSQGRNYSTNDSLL
structure (smiles),measurement,setting,value
"COc1ccc2c(c1OC)CCC(N[C@@H](C)[C@H](O)c1ccc(O)cc1)C2 (relative stereo) [CHF 1255, Erythro-5,6-Dimethoxy-2-[2-(4-hydroxyphenyl)-2-hydroxy-1-mehylethylamino]1,2,3,4-tetrahydronaphthalene hydrochloride]",EC50,"[1]; Table 3, inotropic activity, rat left atrium",3.01 µM
same,EC50,"[1]; Table I, isolated rat left atrium, 4 Hz stimulation, confidence limits in parentheses",3 µM
same,Emax,"[1]; Table 3, isoproterenol=1, read-out: α, left atrium (force)",60%
same,Emax,"[1]; Table I, isoproterenol taken=1, confidence limits in parentheses, read-out: α (intrinsic activity), left atrium (force)",60%
same,Cardiostimulating potency compared with dopamine and CHF 1026,[1]; Table 1 comparison,potency comparable to those of dopamine and of CHF 1026
same,Intrinsic activity / type of agonism (in words),[1]; beta-1 adrenergic receptors,partial agonist of beta-1 adrenergic receptors
same,Potency ratio vs amrinone (times higher),"[1]; increase of contraction force, 50% of maximum effect, higher than amrinone",about 10 times
same,Potency ratio vs xamoterol (times lower),"[1]; increase of contraction force, 50% of maximum effect, lower than xamoterol",about 300 times
same,EC50,"[2]; Table 3, chronotropic activity, rat right atrium",1.32 µM
same,EC50,"[2]; Table I, isolated rat right atrium, confidence limits in parentheses",1.3 µM
same,Emax,"[2]; Table 3, isoproterenol=1, read-out: α, right atrium (frequency)",160%
same,Emax,"[2]; Table I, isoproterenol taken=1, confidence limits in parentheses, read-out: α (intrinsic activity), right atrium (frequency)",55%
same,Chronotropic efficacy compared with xamoterol,[2]; Table 3 comparison,remarkably lower than that of xamoterol
same,Shift of dose-response curve by beta-1 blocker atenolol,[3]; atenolol 10^-8 to 3×10^-7 M,shifted the dose-responsive curve of CHF 1255 to the right in a dose-dependent way
same,Receptor mediating the inotropic activity,[3]; mechanism study,due to the stimulation of beta-1 adrenergic receptors
same,Effect of propranolol on dose-response curve,[4]; 10^-6 M propranolol,remain unchanged
same,Emax,"[4]; guinea pig, isoproterenol=1, without propranolol, read-out: α in absence of propranolol",94%
same,Stimulation of beta-2 adrenergic receptors (in words),[4]; guinea-pig trachea,does not stimulate beta-2 adrenergic receptors
same,EC50,"[4]; guinea-pig trachea, with 10^-6 M propranolol, read-out: EC50 in presence of propranolol",4.6 µM
same,EC50,"[4]; guinea-pig trachea, without propranolol, read-out: EC50 in absence of propranolol",3.4 µM
same,α in presence of propranolol,"[4]; isoproterenol=1, with 10^-6 M propranolol",0.72
same,α-blocking activity in rabbit isolated aorta,[5],competitive inhibition of the noprepinephrine dose--response curve
same,Hemodynamic effects (in words),"[6]; anesthetized dog, i.v.",more relevant than those of amrinone
same,Duration of activity,"[6]; dog, in vivo",long-lasting
same,Hypotensive action,[6]; [15],-17%
same,Increase of the cardiac output,[6]; [15],17%
same,Increase of the stroke volume,[6]; [15],10
same,Reduction of the systemic arterial resistances,[6]; [15],-28%
same,Hypotensive action,[6]; [16],-22%
same,Increase of the cardiac output,[6]; [16],28%
same,Increase of the stroke volume,[6]; [16],16
same,Reduction of the systemic arterial resistances,[6]; [16],-37%
same,Hypotensive action,[6]; [17],-31%
same,Increase of the cardiac output,[6]; [17],34%
same,Increase of the stroke volume,[6]; [17],21
same,Reduction of the systemic arterial resistances,[6]; [17],-45%
same,"Inotropic effect, dF/dT index (in words)",[6]; peak of first derivative of aortic flow,remarkable inotropic effect increasing the dF/dT index
same,LD50,"[7]; iv, i.v.",65 mg/kg
same,LD50,"[7]; po, os",325 mg/kg
same,LD50,"[8]; iv, i.v.",59 mg/kg
same,LD50,"[8]; po, os",1270 mg/kg
same,Contribution of catecholamines release to cardiostimulant action,[9],excluded
same,Contribution of alpha-adrenergic cardiac receptor stimulation to cardiostimulant action,[10],excluded
same,Contribution of histaminergic H1 receptor stimulation to cardiostimulant action,[11],excluded
same,Contribution of histaminergic H2 receptor stimulation to cardiostimulant action,[12],excluded
same,Contribution of phosphodiesterase inhibition to cardiostimulant activity,[13],not due to phosphodiesterase inhibition
same,Tachycardic and arrhythmogenic activity due to stimulation of beta-2 receptors,[14],no tachycardic and arrhythmogenic activity
